Experimental data from patent US6583283B1, “Polymorphic forms of cipamfylline” (SmithKline Beecham Corporation, priority 1997, dated 2003).

Experiments:
Assay type in all cases: physicochemical
[1] = Compression and grinding study; conditions: for Stability to compression / Stability to grinding: polymorphic form followed by IR
Protocol: These spectra were recorded using a Spectra-Tech Plan II microscope coupled to a P-E 1760 FTIR spectrometer (64-256 scans, ratio mode, MCT detector, 4 cm^−1 resolution, dry air purge). Spectra of samples without sample preparation were obtained by mounting crystals on a diamond window. Crushed crystals were prepared using a Spectra-Tech micro-Sample Plan (a compression cell) fitted with diamond windows. A stereo microscope was used to observe the behavior of the crystals during compression. After compression, the diamond windows were separated and a spectrum was recorded of the material adhering to one of the windows.

[2] = Heats of solution in methanol and acetone; conditions: for Heat of solution, Acetone / Heat of solution, Methanol: endothermic; for Heat of solution, Acetone: solvent acetone; for Heat of solution, Methanol: solvent methanol
Protocol: Heats of solution were determined using acetone and methanol as suitable solvents. Different polymorphic forms give rise to different heats of solution. […] The value of HT, the heat of transition, is equal to the difference in crystal lattice energy of the two forms and is the same in both solvents. This is predicted since individual enthalpies are solvent dependent but difference are not. […] Heats of solution for Form IV are in progress.

[3] = Thermal analysis (thermomicroscopy, annealing); conditions: for Polymorphic form after annealing (by IR): 10° C./min from ambient to ca. 250° C., held ½-1 hour, slow cooling to room temperature
Protocol: Differential Scanning Calorimetry (DSC) could not differentiate the three forms of Cipamfylline. […] However, when the heating rate was reduced sufficiently, the melting endotherm appeared as a fused melt, i.e. two components melting. This behavior was common to both Forms I and II.
The onset of sublimation was different for each form and continued over a wide temperature range (130-290° C. on a non-calibrated instrument). This is not evident on the DSC thermograms. Melting occurred over a range (310-323° C. on a non-calibrated instrument) for all three forms. The possibility of two components melting consecutively could not be distinguished. The sublimate was collected for all three forms and analyzed by IR and NMR.
The annealing procedure consisted of heating at 10° C./min from ambient to ca. 250° C. and holding at this point for ½-1 hour, then allowing the sample to cool slowly to room temperature.
This could explain the similarity in melting points of the three forms.

[4] = Crystalline stability; conditions: Forms I, II and IV compared
Text: Form I is characterized by a minimum of five years crystalline stability.

[5] = Solubility in recrystallization solvents; conditions: solvents marked with an asterisk, such as toluene or water

In the case of `Nc1nc2c([nH]1)c(=O)n(CC1CC1)c(=O)n2CC1CC1` [Form IV, 1,3-di-cyclopropylmethyl-8-amino xanthine], the “Polymorphic conversion under pressure” value ([1]; under pressure, under some circumstances) is reported as “convert to Form I”.

In the case of `Nc1nc2c([nH]1)c(=O)n(CC1CC1)c(=O)n2CC1CC1` [Form II, 1,3-di-cyclopropylmethyl-8-amino xanthine], the Stability to compression [1] is reported as “stable to compression”, the Stability to grinding [1] is reported as “not to severe grinding” and the “Relative stability suggested by heats of solution” value ([2]; Form I vs Form II, both solvents) is reported as “the more stable form”. For the same compound, the “Heat of solution, Acetone” value ([2]; listed as 2) was 5.59 kcal/mol, the “Heat of solution, Methanol” value ([2]; listed as 2) was 6.47 kcal/mol and the “Polymorphic form after annealing (by IR)” value [3] was “converted to Form I”.

In the case of `Nc1nc2c([nH]1)c(=O)n(CC1CC1)c(=O)n2CC1CC1` [Form I, 1,3-di-cyclopropylmethyl-8-amino xanthine], the Stability to compression [1] is reported as “stable”, the Stability to grinding [1] is reported as “stable” and the “Heat of solution, Acetone” value ([2]; listed as 1) is reported as 3.93 kcal/mol. For the same compound, the “Heat of solution, Methanol” value ([2]; listed as 1) was 4.81 kcal/mol, the “Relative stability indicated by thermal experiments” value [3] was “the most stable form” and the “Polymorphic form after annealing (by IR)” value [3] was “converted to Form I”. For the same compound, the “Relative stability among the three polymorphs” value [4] was “greatest stability”.

In the case of `Nc1nc2c([nH]1)c(=O)n(CC1CC1)c(=O)n2CC1CC1` [Cipamfylline, 1,3-di-cyclopropylmethyl-8-amino xanthine], the Solubility in solvent [5] is reported as “particularly low solubility”.
